Experimental data reported in patent publication US20250368662A1, “INHIBITORS OF INDOLEAMINE 2,3-DIOXYGENASE 1 (IDO1) AND TRYPTOPHAN 2,3-DIOXYGENASE (TDO) AND METHODS OF USING SAME” (University of South Carolina, priority 2024, published 2025).

Test system: EO771 cells
Experiment: Mouse model of breast cancer (EO771 cells in mammary fat pads)
Type: in vivo
Conditions: female C57Bl/6 mice, i.p. 10 mg/kg every other day for 3 weeks
Source text: In a mouse model of breast cancer, 8-week-old female C57Bl/6 mice were inoculated with EO771 cells in the 4th pair of mammary fat pads. […] Mice were sacrificed 24 days after cell inoculation.

weights of the heart, liver, lungs, kidney, brain, and lymph nodes: did not affect
SMILES: O=C(NCCCCC1CN2C(c3ccc4ccccc4c3)=CSC2=N1)Nc1ccccc1 (centres unmarked) [USCYL01]
body weight: did not affect
